Laboratory results taken from patent publication US20210238162A1, “CHEMICAL COMPOUNDS” (GlaxoSmithKline Intellectual Property Development Limited, priority 2015, published 2021).
Counter-ions that a name gives are not always drawn.

biological target: T1, haematopoietic prostaglandin D synthase (H-PGDS) (Homo sapiens, UniProt O60760); test: H-PGDS RapidFire High Throughput Mass Spectrometry Assay; type: biochemical; conditions: H-PGDS RapidFire MS assay, mean pIC50; read-out: Potency Range (mean pIC50) (converted)
T1 construct: Full length human H-PGDS cDNA (Invitrogen Ultimate ORF IOH13026) was amplified by PCR; made in house; host or cells: E. coli BL21 (DE3*), vector pET22b+
T1 sequence (O60760 whole entry): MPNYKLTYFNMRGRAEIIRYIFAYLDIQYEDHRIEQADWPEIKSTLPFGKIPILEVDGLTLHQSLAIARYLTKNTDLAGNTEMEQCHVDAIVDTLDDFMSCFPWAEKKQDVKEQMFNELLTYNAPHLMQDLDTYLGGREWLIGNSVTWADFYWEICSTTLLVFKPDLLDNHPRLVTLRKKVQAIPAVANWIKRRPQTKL
In short: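 PGH2 (~10 μM burst) generated in situ from arachidonic acid by FLAG-tagged human COX-2 (Sf9-expressed), then converted to PGD2 by full-length human His-tagged H-PGDS from E. coli. PGD2 and PGF2α (substrate surrogate) quantified by RapidFire SPE-triple quadrupole MS; percent conversion calculated.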

**Q.** With `O=C(N[C@H]1CC[C@H](N[C@H](CO)C(F)(F)F)CC1)c1cnc2cc(OC(F)F)c(F)cc2c1` [Example 77, 7-(Difluoromethoxy)-6-fluoro-N-(trans-4-(((R)-1,1,1-trifluoro-3-hydroxypropan-2-yl)amino)cyclohexyl)quinoline-3-carboxamide] as the compound, how does the IC50 read?
**A.** 10 to 79.4 nM

**Q.** Which IC50 does the source give for `O=C(N[C@H]1CCN(CC2CCCC2)C1=O)c1cnc2cc(OC(F)F)c(F)cc2c1` [Example 78, (S)—N-(1-(Cyclopentylmethyl)-2-oxopyrrolidin-3-yl)-7-(difluoromethoxy)-6-fluoroquinoline-3-carboxamide] here?
**A.** 10 to 79.4 nM

**Q.** `CC(C)C(O)CO[C@H]1CC[C@H](NC(=O)c2cnc3cc(OC(F)F)c(F)cc3c2)CC1` (stereo partly drawn) [Example 79, 7-(Difluoromethoxy)-6-fluoro-N-(trans-4-(2-hydroxy-3-methylbutoxy)cyclohexyl)quinoline-3-carboxamide] was tested. Which IC50 did it give?
**A.** 10 to 79.4 nM

**Q.** Which IC50 does the source give for `CCOC(=O)c1cnc(N2CC[C@H](NC(=O)c3cnc4cc(OC(F)F)c(F)cc4c3)C2)o1` [Example 80, (S)-Ethyl 2-(3-(7-(difluoromethoxy)-6-fluoroquinoline-3-carboxamido)pyrrolidin-1-yl)oxazole-5-carboxylate trifluoroacetic acid salt] here?
**A.** 10 to 79.4 nM

**Q.** Which IC50 does the source give for `CC[C@]1(O)CC[C@H](NC(=O)c2cnc3cc(OC(F)F)c(F)cc3c2)CC1` [Example 81, 7-(Difluoromethoxy)-N-((1r,4r)-4-ethyl-4-hydroxycyclohexyl)-6-fluoroquinoline-3-carboxamide] here?
**A.** 10 to 79.4 nM

**Q.** `CCOC(=O)c1coc(N2CC(NC(=O)c3cnc4cc(OC(F)F)c(F)cc4c3)C2)n1` [Example 82, Ethyl 2-(3-(7-(difluoromethoxy)-6-fluoroquinoline-3-carboxamido)azetidin-1-yl)oxazole-4-carboxylate] was tested. Which IC50 did it give?
**A.** 10 to 79.4 nM

**Q.** With `CCOC(=O)c1cnc(N[C@H]2C[C@H](NC(=O)c3cnc4cc(OC(F)F)c(F)cc4c3)C2)o1` [Example 83, Ethyl 2-((trans-3-(7-(difluoromethoxy)-6-fluoroquinoline-3-carboxamido)cyclobutyl)amino)oxazole-5-carboxylate] as the compound, how does the IC50 read?
**A.** 10 to 79.4 nM

**Q.** With `CCOC(=O)c1cnc(N2CC(NC(=O)c3cnc4cc(OC(F)F)c(F)cc4c3)C2)o1` [Example 84, Ethyl 2-(3-(7-(difluoromethoxy)-6-fluoroquinoline-3-carboxamido)azetidin-1-yl)oxazole-5-carboxylate] as the compound, how does the IC50 read?
**A.** 10 to 79.4 nM

**Q.** Which IC50 does the source give for `O=C(N[C@H]1CC[C@H](N[C@@H](CO)C(F)(F)F)CC1)c1cnc2cc(OC(F)F)c(F)cc2c1` [Example 85, 7-(Difluoromethoxy)-6-fluoro-N-(trans-4-(((S)-1,1,1-trifluoro-3-hydroxypropan-2-yl)amino)cyclohexyl)quinoline-3-carboxamide] here?
**A.** 10 to 79.4 nM

**Q.** For `COC(=O)[C@H]1CC[C@H](NC(=O)c2cnc3cc(OC(F)F)c(F)cc3c2)CC1` [Example 86, trans-Methyl 4-(7-(difluoromethoxy)-6-fluoroquinoline-3-carboxamido)cyclohexanecarboxylate], which IC50 is on record?
**A.** < 10 nM

**Q.** Which IC50 does the source give for `N#C[C@H]1CC[C@H](NC(=O)c2cnc3cc(OC(F)F)c(F)cc3c2)CC1` [Example 87, N-(trans-4-Cyanocyclohexyl)-7-(difluoromethoxy)-6-fluoroquinoline-3-carboxamide] here?
**A.** 10 to 79.4 nM

**Q.** Which IC50 does the source give for `CCOC(=O)C[C@H]1CC[C@H](NC(=O)c2cnc3cc(OC(F)F)c(F)cc3c2)CC1` [Example 88, Ethyl 2-(trans-4-(7-(difluoromethoxy)-6-fluoroquinoline-3-carboxamido)cyclohexyl)acetate] here?
**A.** 10 to 79.4 nM

**Q.** With `O=C(N[C@H]1CC[C@@H](N2CC(F)C2)CC1)c1cnc2cc(OC(F)F)c(F)cc2c1` [Example 89, 7-(Difluoromethoxy)-6-fluoro-N-(cis-4-(3-fluoroazetidin-1-yl)cyclohexyl)quinoline-3-carboxamide] as the compound, how does the IC50 read?
**A.** 100 to 1000 nM

**Q.** With `O=C(N[C@H]1CC[C@H](N2CC(F)C2)CC1)c1cnc2cc(OC(F)F)c(F)cc2c1` [Example 90, 7-(Difluoromethoxy)-6-fluoro-N-(trans-4-(3-fluoroazetidin-1-yl)cyclohexyl)quinoline-3-carboxamide] as the compound, how does the IC50 read?
**A.** 10 to 79.4 nM

**Q.** `O=C(N[C@H]1CC[C@@H](N2CC(O)(C(F)(F)F)C2)CC1)c1cnc2cc(OC(F)F)c(F)cc2c1` [Example 91, 7-(Difluoromethoxy)-6-fluoro-N-(cis-4-(3-hydroxy-3-(trifluoromethyl)azetidin-1-yl)cyclohexyl)quinoline-3-carboxamide] was tested. Which IC50 did it give?
**A.** 100 to 1000 nM

**Q.** Which IC50 does the source give for `O=C(N[C@H]1CC[C@H](N2CC(O)(C(F)(F)F)C2)CC1)c1cnc2cc(OC(F)F)c(F)cc2c1` [Example 92, 7-(Difluoromethoxy)-6-fluoro-N-(trans-4-(3-hydroxy-3-(trifluoromethyl)azetidin-1-yl)cyclohexyl)quinoline-3-carboxamide] here?
**A.** 10 to 79.4 nM

**Q.** `C[C@]1(O)C[C@@H](NC(=O)c2cnc3cc(OC(F)F)c(F)cc3c2)C1` [Example 93, 7-(Difluoromethoxy)-6-fluoro-N-((1s,3s)-3-hydroxy-3-methylcyclobutyl)quinoline-3-carboxamide] was tested. Which IC50 did it give?
**A.** 100 to 1000 nM

**Q.** For `CS(=O)(=O)CCO[C@H]1CC[C@H](NC(=O)c2cnc3cc(OC(F)F)c(F)cc3c2)CC1` [Example 94, 7-(Difluoromethoxy)-6-fluoro-N-(trans-4-(2-(methylsulfonyl)ethoxy)cyclohexyl)quinoline-3-carboxamide], which IC50 is on record?
**A.** 10 to 79.4 nM

**Q.** `O=C(NC1CCN(c2ccccn2)CC1)c1cnc2cc(OC(F)F)c(F)cc2c1` [Example 95, 7-(Difluoromethoxy)-6-fluoro-N-(1-(pyridin-2-yl)piperidin-4-yl)quinoline-3-carboxamide] was tested. Which IC50 did it give?
**A.** < 10 nM

**Q.** For `O=C(NC1CCN(c2cccnc2)CC1)c1cnc2cc(OC(F)F)c(F)cc2c1` [Example 96, 7-(Difluoromethoxy)-6-fluoro-N-(1-(pyridin-3-yl)piperidin-4-yl)quinoline-3-carboxamide], which IC50 is on record?
**A.** 10 to 79.4 nM

**Q.** How did the IC50 turn out when `N#Cc1cnc(N2CCC(NC(=O)c3cnc4cc(OC(F)F)c(F)cc4c3)CC2)o1` [Example 97, N-(1-(5-Cyanooxazol-2-yl)piperidin-4-yl)-7-(difluoromethoxy)-6-fluoroquinoline-3-carboxamide] was run?
**A.** 10 to 79.4 nM

**Q.** How did the IC50 turn out when `N#Cc1ccc(N2CC(NC(=O)c3cnc4cc(OC(F)F)c(F)cc4c3)C2)nc1` [Example 98, N-(1-(5-Cyanopyridin-2-yl)azetidin-3-yl)-7-(difluoromethoxy)-6-fluoroquinoline-3-carboxamide] was run?
**A.** 10 to 79.4 nM

**Q.** Which IC50 does the source give for `C[C@@H](NC[C@H]1CC[C@H](NC(=O)c2cnc3cc(OC(F)F)c(F)cc3c2)CC1)C(F)F` [Example 99, 7-(Difluoromethoxy)-N-(trans-4-((((R)-1,1-difluoropropan-2-yl)amino)methyl)cyclohexyl)-6-fluoroquinoline-3-carboxamide] here?
**A.** 10 to 79.4 nM

**Q.** `C[C@H](NC[C@H]1CC[C@H](NC(=O)c2cnc3cc(OC(F)F)c(F)cc3c2)CC1)C(F)F` [Example 100, 7-(Difluoromethoxy)-N-(trans-4-((((S)-1,1-difluoropropan-2-yl)amino)methyl)cyclohexyl)-6-fluoroquinoline-3-carboxamide] was tested. Which IC50 did it give?
**A.** 10 to 79.4 nM

**Q.** Which IC50 does the source give for `C#CCOC[C@H]1CC[C@H](NC(=O)c2cnc3cc(OC(F)F)c(F)cc3c2)CC1` [Example 101, 7-(Difluoromethoxy)-6-fluoro-N-(trans-4-((prop-2-yn-1-yloxy)methyl)cyclohexyl)quinoline-3-carboxamide] here?
**A.** < 10 nM

**Q.** `C#CCNC(=O)CO[C@H]1CC[C@H](NC(=O)c2cnc3cc(OC(F)F)c(F)cc3c2)CC1` [Example 102, 7-(Difluoromethoxy)-6-fluoro-N-(trans-4-(2-oxo-2-(prop-2-yn-1-ylamino)ethoxy)cyclohexyl)quinoline-3-carboxamide] was tested. Which IC50 did it give?
**A.** 10 to 79.4 nM

**Q.** Which IC50 does the source give for `C#CCCNC(=O)CO[C@H]1CC[C@H](NC(=O)c2cnc3cc(OC(F)F)c(F)cc3c2)CC1` [Example 103, N-(trans-4-(2-(but-3-yn-1-ylamino)-2-oxoethoxy)cyclohexyl)-7-(difluoromethoxy)-6-fluoroquinoline-3-carboxamide] here?
**A.** 10 to 79.4 nM

**Q.** For `CCc1cccc2cc(C(=O)Nc3nccs3)cnc12` [Example 105, 8-Ethyl-N-(thiazol-2-yl)quinoline-3-carboxamide], which IC50 is on record?
**A.** 100 to 1000 nM

**Q.** How did the IC50 turn out when `Cn1nnnc1N1CCC(NC(=O)c2cnc3ccc(Cl)cc3c2)CC1` [Example 106, 6-Chloro-N-(1-(1-methyl-1H-tetrazol-5-yl)piperidin-4-yl)quinoline-3-carboxamide] was run?
**A.** 100 to 1000 nM

**Q.** How did the IC50 turn out when `Cn1nnnc1N1CCC(NC(=O)c2cnc3cc(C(F)(F)F)ccc3c2)CC1` [Example 107, N-(1-(1-Methyl-1H-tetrazol-5-yl)piperidin-4-yl)-7-(trifluoromethyl)quinoline-3-carboxamide] was run?
**A.** 100 to 1000 nM

**Q.** How did the IC50 turn out when `Cn1nnnc1N1CCC(NC(=O)c2cnc3cc(Br)ccc3c2)CC1` [Example 108, 7-Bromo-N-(1-(1-methyl-1H-tetrazol-5-yl)piperidin-4-yl)quinoline-3-carboxamide] was run?
**A.** 10 to 79.4 nM

**Q.** How did the IC50 turn out when `Cn1nnnc1N1CCC(NC(=O)c2cnc3cc(Cl)ccc3c2)CC1` [Example 109, 7-Chloro-N-(1-(1-methyl-1H-tetrazol-5-yl)piperidin-4-yl)quinoline-3-carboxamide] was run?
**A.** 100 to 1000 nM

**Q.** For `CCc1ccc2cc(C(=O)NC3CCN(c4nnnn4C)CC3)cnc2c1` [Example 110, 7-Ethyl-N-(1-(1-methyl-1H-tetrazol-5-yl)piperidin-4-yl)quinoline-3-carboxamide], which IC50 is on record?
**A.** 10 to 79.4 nM

**Q.** How did the IC50 turn out when `Cn1nnnc1N1CCC(NC(=O)c2cnc3cc4c(cc3c2)OCCO4)CC1` [Example 111, N-(1-(1-Methyl-1H-tetrazol-5-yl)piperidin-4-yl)-2,3-dihydro-[1,4]dioxino[2,3-q]quinoline-8-carboxamide] was run?
**A.** 10 to 79.4 nM

**Q.** Which IC50 does the source give for `Cn1nnnc1N1CCC(NC(=O)c2cnc3c4c(ccc3c2)CCO4)CC1` [Example 112, N-(1-(1-Methyl-1H-tetrazol-5-yl)piperidin-4-yl)-2,3-dihydrofuro[3,2-h]quinoline-7-carboxamide] here?
**A.** 10 to 79.4 nM
